Measured values published in patent US3991057A, “C-Piperazino-pyridine sulfonamides” (A. Christiaens Societe Anonyme, priority 1970, dated 1976).
Counter-ions that a name gives are not always drawn. Like-named read-outs stand apart in the source and are kept apart here.

Columns and labels:
[1] = tested on: carrageenan-induced paw oedema; experiment: Acute oedema induced by carrageenan (anti-inflammatory test, rat paw swelling by plethysmography); type: in vivo; details: for inhibition in vivo at 100 mg/kg: Rattus norvegicus, read-out: Acute oedema induced by carrageenan, % of inhibition
Procedure: The anti-inflammatory properties are determined as follows:
The compounds to be tested are given as freshly prepared solutions or suspensions by oral route one hour before injecting the paw with carrageenan, a known inflammatory agent.
The inflammatory agent either in aqueous solution or suspension is then injected into the plantar tissue of the right hind paw of each rat, the left paw remaining untreated and serving as control. Each animal receives for example 0.05 ml of an aqueous solution containing 1 % of carrageenan and 0.9 % of sodium chloride.
4 hours after injection, the importance of swelling is determined by plethysmography and is expressed as a percent of the volume of the control paw.
The anti-inflammatory effect expressed as a percent of inhibition is obtained by comparison between rats treated with the anti-inflammatory agent and a control group of rats.
100 mg/kg of anti-inflammatory agent are administered by oral route.

[2] = tested on: test animal (left carotid and femoral artery flow, ventricular and aortic pressure); experiment: Cardiovascular properties (flow rates of carotid and femoral artery, ventricular and aortic pressures) in the test animal; type: in vivo; design: ventricular and aortic pressures after moderate lowering: unit not given here; details: for ventricular and aortic pressures after sharp fall: from 130 mm of Hg
Procedure: Some compounds of this invention also have interesting cardiovascular properties so that they may be used as cerebral, coronary and peripheral vasodilators and hypotension-inducing agents, whereby the hypotension activity may occur primarily or secondarily with respect to the peripheral vasodilatation.
These cardiovascular properties have been found as follows:
After administration of the compound at the hereafter-indicated doses, the following parameters are measured on the test animal: the electrocardiogram, the left ventricular pressure, the amplified telediastolic pressure, the derivative of the ventricular pressure with respect to time (dp/dt), the aortic pressure, the average and pulsatile blood flow of the left carotid and femoral artery.

[3] = 100 mg/kg oral, one hour before carrageenan, 4 hours after injection

CCN(CC)S(=O)(=O)c1cccnc1N1CCN(C)CC1 [Example 5, 2-(4'-methyl-1'-piperazinyl)-pyridine-3-diethylsulfonamide dihydrochloride]
inhibition in vivo at 100 mg/kg [1, 3]: 44%

CNC(=O)c1cccnc1N1CCN(C)CC1 [Example 19, 2-(4'-methyl-1'-piperazinyl)-pyridine-3-methylcarboxamide]
inhibition in vivo at 100 mg/kg [1, 3]: 51.2%

CC(C)NC(=O)c1cccnc1N1CCN(C)CC1 [Example 22, 2-(4'-methyl-1'-piperazinyl)-pyridine-3-isopropylcarboxamide]
inhibition in vivo at 100 mg/kg [1, 3]: 40%

CN1CCN(c2ccncc2S(N)(=O)=O)CC1 [Example 28, 4-(4'-methyl-1'-piperazinyl)-pyridine-3-sulfonamide]
duration of activity on / increase of the carotid and femoral flow rates ([2]; 2 mg/kg): more than 5 min | time to return of ventricular and aortic pressures to the starting values / reversal of lowering ([2]; 2 mg/kg): ≤ 2 min | ventricular and aortic pressures after moderate lowering ([2]; 2 mg/kg, from 160 mm of Hg): 100 | increase of the femoral flow rate ([2]; 2 mg/kg, maximum): 100% | increase of the carotid flow rate ([2]; 2 mg/kg, maximum where stated): 150% | phenomena (flow rates and pressures) compared with 2 mg/kg ([2]; 4 mg/kg): The same phenomena occur | time to return of pressures to the starting values ([2]; 4 mg/kg): 40 min | ventricular and aortic pressures after lowering ([2]; 4 mg/kg, from 160 mm of Hg): 70 mm of Hg | phenomena (flow rates and pressures) compared with 4 mg/kg ([2]; 8 mg/kg): identical phenomena are observed | time to return of pressures to their starting value ([2]; 8 mg/kg): 50 min

CCOCCNS(=O)(=O)c1cnccc1N1CCN(C)CC1 [Example 40, 4-(4'-methyl-1'-piperazinyl)-pyridine-3-ethoxyethylsulfonamide]
duration of activity on / increase of the carotid and femoral flow rates ([2]; 2 mg/kg): less than 5 min | variation of the cardiac and peripheral pressures ([2]; 2 mg/kg): without variation | increase of the femoral flow rate ([2]; 2 mg/kg, maximum): 50% | increase of the carotid flow rate ([2]; 2 mg/kg, maximum where stated): 300% | duration of hypotension / fall of pressure ([2]; 4 mg/kg): 3 min | increase of the carotid flow rate ([2]; 4 mg/kg): moderate increase of the carotid flow rate remains after return of the pressure rates to normal conditions | return of blood pressure to the starting values ([2]; 4 mg/kg): quick return to the starting values | blood pressure after moderate fall ([2]; 4 mg/kg, from 150 mm of Hg): 90 mm of Hg | inhibition in vivo at 100 mg/kg [1, 3]: 60%

CN1CCN(c2ccc(C#N)cn2)CC1 [Example 23, 2-(4'-methyl-1'-piperazinyl)-5-cyanopyridine]
inhibition in vivo at 100 mg/kg [1, 3]: 48.8%

O=C(O)c1ccccc1Nc1cccc(C(F)(F)F)c1 [Flufenamic acid, reference compound]
inhibition in vivo at 100 mg/kg [1, 3]: 34%

CN1c2ccccc2Sc2ccc(CC(=O)O)cc21 [Methiazinic acid, reference compound]
inhibition in vivo at 100 mg/kg [1, 3]: 46%

CC(=O)Oc1ccccc1C(=O)O [Acetosalicylic acid, reference compound]
inhibition in vivo at 100 mg/kg ([1]; po, 4 h): 0%

CCN(CC)S(=O)(=O)c1cnccc1N1CCN(C)CC1 [Example 32, 4-(4'-methyl-1'-piperazinyl)-pyridine-3-diethylsulfonamide]
time to fall of cardiac and peripheral pressures ([2]; 2 mg/kg): ≤ 45 s | cardiac and peripheral pressures on recovery ([2]; 2 mg/kg, after 5 minutes): 135 mm of Hg | cardiac and peripheral pressures after fall ([2]; 2 mg/kg, from 150 mm of Hg): 75 mm of Hg | increase of the carotid flow rate ([2]; 2 mg/kg, maximum where stated): 60% | duration of hypotension / fall of pressure ([2]; 4 mg/kg): more than 20 min | time to return of pressures to the starting values ([2]; 4 mg/kg): > 70 min | pressure on return to the starting values ([2]; 4 mg/kg, after 70 minutes): 130 mm of Hg | pressure in moderate hypotension ([2]; 4 mg/kg, from 135 mm of Hg): 75 mm of Hg | inhibition in vivo at 100 mg/kg [1, 3]: 44.8%

CCNS(=O)(=O)c1ccc(N2CCN(C)CC2)nc1 [Example 11, 2-(4'-methyl-1'-piperazinyl)-pyridine-5-ethylsulfonamide]
inhibition in vivo at 100 mg/kg [1, 3]: 42.4%

CN(C)C=NS(=O)(=O)c1cnccc1N1CCN(C)CC1 [Example 48, 4-(4'-methyl-1'-piperazinyl)-pyridine-3-dimethylaminomethinesulfonamide]
duration of activity on / increase of the carotid and femoral flow rates ([2]; 2 mg/kg): 5 min | increase of the carotid and femoral flow rates ([2]; 2 mg/kg): 100% | duration of increase of the carotid and femoral flow rates ([2]; 4 mg/kg): 10 min | fall of the ventricular and aortic pressures ([2]; 4 mg/kg): temporary and moderate fall | increase of the carotid and femoral flow rates ([2]; 4 mg/kg, compared with 2 mg/kg): stronger and longer | phenomena (flow rates and pressures) compared with 4 mg/kg ([2]; 8 mg/kg): Identical phenomena are observed

CCNC(=O)c1cccnc1N1CCN(C)CC1 [Example 21, 2-(4'-methyl-1'-piperazinyl)-pyridine-3-ethylcarboxamide]
inhibition in vivo at 100 mg/kg [1, 3]: 44.4%

CC(C)NC(=O)c1ccc(N2CCN(C)CC2)nc1 [Example 27, 2-(4'-methyl-1'-piperazinyl)-5-isopropylcarboxamide]
inhibition in vivo at 100 mg/kg [1, 3]: 32%

O=C(O)c1cccnc1Nc1cccc(C(F)(F)F)c1 [Niflumic acid, reference compound]
inhibition in vivo at 100 mg/kg [1, 3]: 32%

CN1CCN(CCNS(=O)(=O)c2cnccc2N2CCN(C)CC2)CC1 [Example 38, 4-(4'-methyl-1'-piperazinyl)-pyridine-3-(4"-methyl-1"-piperazinyl)-ethylsulfonamide]
activity on the carotid and femoral flow rates ([2]; 2 mg/kg): slight and breaf | duration of activity on / increase of the carotid and femoral flow rates ([2]; 2 mg/kg): 5 min | duration of action on the carotid and femoral flow rates ([2]; 4 mg/kg and 8 mg/kg): 10 min | increase of the average flow rates (carotid and femoral) ([2]; 4 mg/kg and 8 mg/kg): 100% | Acute oedema induced by carrageenan, % of inhibition [1, 3]: 60.8%

CCNS(=O)(=O)c1cccnc1N1CCN(C)CC1 [Example 4, 2-(4'-methyl-1'-piperazinyl)-pyridine-3-ethylsulfonamide]
inhibition in vivo at 100 mg/kg [1, 3]: 50%

CN1CCN(c2ncccc2C#N)CC1 [Example 14, 2-(4'-methyl-1'-piperazinyl)-3-cyanopyridine hydrochloride]
inhibition in vivo at 100 mg/kg [1, 3]: 63.2%

COCCNS(=O)(=O)c1cnccc1N1CCN(C)CC1 [Example 39, 4-(4'-methyl-1'-piperazinyl)-pyridine-3-methyoxyethylsulfonamide]
time to return of ventricular and aortic pressures to the starting values / reversal of lowering ([2]; 2 mg/kg): less than 3 min | ventricular and aortic pressures after sharp fall ([2]; 2 mg/kg): 90 mm of Hg | increase of the carotid flow rate ([2]; 2 mg/kg, maximum where stated): 75% | duration of hypotension / fall of pressure ([2]; 4 mg/kg): 2 min | increase of the peripheral flow rates ([2]; 4 mg/kg): 50% | time to return of pressures to the starting values ([2]; 4 mg/kg): 30 min | ventricular and aortic pressures after sharp fall ([2]; 4 mg/kg): 40 mm of Hg | inhibition in vivo at 100 mg/kg [1, 3]: 55.2%

CC(C)NS(=O)(=O)c1cnccc1N1CCN(C)CC1 [Example 33, 4-(4'-methyl-1'-piperazinyl)-pyridine-3-isopropylsulfonamide]
duration of increase of the average carotid flow rate ([2]; 2 mg/kg): 5 min | increase of the average carotid flow rate ([2]; 2 mg/kg): slight increase | time the carotid flow rate remains high compared to control values ([2]; 4 mg/kg): 10 min | time to increase of the carotid flow rate ([2]; 4 mg/kg): within two minutes | time to fall of femoral flow rate to the starting values ([2]; 4 mg/kg, after injection): ≤ 2 min | increase of the carotid flow rate ([2]; 4 mg/kg, maximum where stated): 300% | increase of the femoral flow rate ([2]; 4 mg/kg, maximum where stated): 200%

CN1CCN(c2ccc(C(=O)N(C)C)cn2)CC1 [Example 25, 2-(4'-methyl-1'-piperazinyl)-5-dimethylcarboxamide]
inhibition in vivo at 100 mg/kg [1, 3]: 28.8%

CCCCC1C(=O)N(c2ccccc2)N(c2ccccc2)C1=O [Phenylbutazone, reference compound]
inhibition in vivo at 100 mg/kg [1, 3]: 41%

CNS(=O)(=O)c1cnccc1N1CCN(C)CC1 [Example 29, 4-(4'-methyl-1'-piperazinyl)-pyridine-3-methylsulfonamide]
duration of increase of the femoral flow rate ([2]; 2 mg/kg): less than 5 min | increase of the femoral flow rate ([2]; 2 mg/kg, maximum): 80% | duration of increase of the carotid and femoral flow rates ([2]; 4 mg/kg): 10 min | modification of the pressures ([2]; 4 mg/kg): slight reflex modification of the pressures | increase of the carotid flow rate ([2]; 4 mg/kg, maximum where stated): 120% | increase of the femoral flow rate ([2]; 4 mg/kg, maximum where stated): 80% | increase of the carotid flow rate ([2]; 10 mg/kg): 300% | phenomena (flow rates and pressures) compared with 4 mg/kg ([2]; 10 mg/kg): identical phenomena occur which are however stronger and of longer duration
